Results published in patent US8247431B2, “Heterocyclic hydrazide compound and pesticidal use of the same” (Sumitomo Chemical Company, Limited, priority 2007, dated 2012).

Experiments:
Assay type in all cases: in vivo
[1] = system: diamondback moths (Plutella xylostella); assay: Test Example 1: spray on cabbage, third-instar larvae of diamondback moths; conditions: 20 ml/cup spray on cabbage, 10 third-instar larvae, counted after 5 days; for pest or weed control at 500 ppm: Plutella xylostella, 120 h, 500 ppm active ingredient, read-out: controlling value
Protocol: Then, it will be shown by Test Examples that the present compound is effective in controlling harmful arthropods. In the Test Example, controlling values were calculated by the following equation: Controlling value(%)={1−(Cb×Tai)/(Cai×Tb)}×100 wherein Cb: the number of worms in a non-treated section before treatment Cai: the number of worms in a non-treated section on observation Tb: the number of worms in a treated-section before treatment Tai: the number of worms in a treated-section on observation. Preparations of the test compounds obtained in Formulation Example 5 were diluted with water so that the active ingredient concentration became 500 ppm, to prepare test spray solutions. At the same time, cabbage was planted in a polyethylene cup, and grown until the third true leaf or the fourth true leaf was developed. The test spray solution as described above was sprayed in an amount of 20 ml/cup on the cabbage. After the spray solution on the cabbage was dried, 10 third-instar larvae of diamondback moths (Plutella xylostella) were put on the cabbage. After 5 days, the number of diamondback moths was counted, and the controlling value was calculated by the above equation. Furthermore, preparations of the test compound (7) and a comparative compound of the formula [drawing 523] obtained in a formulation according to Formulation Example 5 were diluted with water so that the active ingredient concentration became 0.2 ppm, to prepare test spray solution. At the same time, cabbage was planted in a polyethylene cup, and grown until the third true leaf or the fourth true leaf was developed. The test spray solution as described above was sprayed in an amount of 20 ml/cup on the cabbage. After the spray solution on the cabbage was dried, 10 third-instar larvae of diamondback moths (Plutella xylostella) were put on the cabbage. After 5 days, the number of diamondback moths was counted, and the controlling value was calculated by the above equation.

[2] = system: cotton aphids (Aphis gossypii); assay: Test Example 2: spray on cucumber infested with cotton aphids; conditions: topical, 144 h, 500 ppm active ingredient, 20 ml/cup spray on cucumber, about 30 aphids, counted six days after spraying, read-out: controlling value
Protocol: Then, it will be shown by Test Examples that the present compound is effective in controlling harmful arthropods. In the Test Example, controlling values were calculated by the following equation: Controlling value(%)={1−(Cb×Tai)/(Cai×Tb)}×100 wherein Cb: the number of worms in a non-treated section before treatment Cai: the number of worms in a non-treated section on observation Tb: the number of worms in a treated-section before treatment Tai: the number of worms in a treated-section on observation. Preparations of the test compounds obtained in Formulation Example 5 were diluted with water so that the active ingredient concentration became 500 ppm to prepare test spray solutions. At the same time, cucumber was planted in a polyethylene cup, and was grown until the first true leaf was developed. About 30 cotton aphids were put on the cucumber. One day after, the test spray solution as described above was sprayed in an amount of 20 ml/cup on the cucumber. Six days after spraying, the number of cotton aphids (Aphis gossypii) was counted, and a controlling value was calculated by the above equation.

[3] = system: Adoxophyes orana fasciata; assay: Test Example 4: spray on apple seedling, first-instar larvae of Adoxophyes orana fasciata; conditions: 168 h, 500 ppm active ingredient, 20 ml spray on apple seedling, about 30 first-instar larvae, counted seven days after spraying, read-out: controlling value
Protocol: Then, it will be shown by Test Examples that the present compound is effective in controlling harmful arthropods. In the Test Example, controlling values were calculated by the following equation: Controlling value(%)={1−(Cb×Tai)/(Cai×Tb)}×100 wherein Cb: the number of worms in a non-treated section before treatment Cai: the number of worms in a non-treated section on observation Tb: the number of worms in a treated-section before treatment Tai: the number of worms in a treated-section on observation. Preparations of the test compounds obtained in Formulation Example 5 were diluted with water so that the active ingredient concentration became 500 ppm to prepare test spray solutions. At the same time, 20 ml of the test spray solution as described above was sprayed to an apple seedling (28 day-old seeding, tree height: about 15 cm) planted in a plastic cup. The apple seedling was air-dried to such an extent that the spray solution sprayed on the apple seedling was dried. About 30 first-instar larvae of Adoxophyes orana fasciata were released. Seven days after spraying, the number of worms surviving on the apple seedling was counted, and a controlling value was calculated by the above equation.

Spodoptera litura = assay: Test Example 3: spray on cabbage, fourth-instar larvae of Spodoptera litura; conditions: 120 h, 500 ppm active ingredient, 20 ml/cup spray on cabbage, 10 fourth-instar larvae, counted after 5 days, read-out: controlling value
Protocol: Then, it will be shown by Test Examples that the present compound is effective in controlling harmful arthropods. In the Test Example, controlling values were calculated by the following equation: Controlling value(%)={1−(Cb×Tai)/(Cai×Tb)}×100 wherein Cb: the number of worms in a non-treated section before treatment Cai: the number of worms in a non-treated section on observation Tb: the number of worms in a treated-section before treatment Tai: the number of worms in a treated-section on observation. Preparations of the test compounds obtained in Formulation Example 5 were diluted with water so that the active ingredient concentration became 500 ppm to prepare test spray solutions. At the same time, cabbage was planted in a polyethylene cup, and grown until the third true leaf or the fourth true leaf was developed. The test spray solution as described above was sprayed in an amount of 20 ml/cup on the cabbage. After the spray solution sprayed on the cabbage was dried, 10 fourth-instar larvae of Spodoptera litura were put on the cabbage. After 5 days, the number of Spodoptera litura surviving on the cabbage leaves was counted, and a controlling value was calculated by the above equation.

Compound	pest or weed control at 500 ppm [1]	pest or weed control at 500 ppm [2]	pest or weed control at 500 ppm [3]	pest or weed control at 500 ppm (Spodoptera litura)	control value ([1]; 0.2 ppm active ingredient)
COC(=O)NNC(=O)c1cnn(C)c1NC(=O)c1cc(Br)nn1-c1ncccc1Cl [Compound 19, N′-(5-{[5-bromo-2-(3-chloro-pyridin-2-yl)-2H-pyrazole-3-carbonyl]-amino}-1-methyl-1H-pyrazole-4-carbonyl)-hydrazinecarboxylic acid methyl ester]	≥ 90%	≥ 90%	≥ 90%		
COC(=O)NNC(=O)c1nc(Cl)cc(Br)c1NC(=O)c1cc(Br)nn1-c1ncccc1Cl [Compound 15, N′-(4-bromo-3-{[5-bromo-2-(3-chloro-pyridin-2-yl)-2H-pyrazole-3-carbonyl]-amino}-6-chloro-pyridine-2-carbonyl)-hydrazine carboxylic acid methyl ester]	≥ 90%	≥ 90%	≥ 90%	≥ 80%	
CCN(NC(=O)c1nc(Cl)cc(C)c1NC(=O)c1cc(Br)nn1-c1ncccc1Cl)C(=O)OC [Compound 10, N′-(3-{[5-bromo-2-(3-chloro-pyridin-2-yl)-2H-pyrazole-3-carbonyl]-amino}-6-chloro-4-methyl-pyridine-2-carbonyl)-N-ethyl-hydrazinecarboxylic acid methyl ester]	≥ 90%	≥ 90%		≥ 80%	
COC(=O)N(C)NC(=O)c1nc(Cl)cc(C)c1NC(=O)c1cc(Br)nn1-c1ncccc1Cl [Compound 8, N′-(3-{[5-bromo-2-(3-chloro-pyridin-2-yl)-2H-pyrazole-3-carbonyl]-amino}-6-chloro-4-methyl-pyridine-2-carbonyl)-N-methyl-hydrazinecarboxylic acid methyl ester]	≥ 90%	≥ 90%	≥ 90%	≥ 80%	
COC(=O)NNC(=O)c1nc(Cl)cc(Cl)c1NC(=O)c1cc(Br)nn1-c1ncccc1Cl [Compound 14, N′-(3-{[5-bromo-2-(3-chloro-pyridin-2-yl)-2H-pyrazole-3-carbonyl]-amino}-4,6-dichloro-pyridine-2-carbonyl)-hydrazinecarboxylic acid methyl ester]	≥ 90%	≥ 90%	≥ 90%	≥ 80%	
COC(=O)NNC(=O)c1scc(C)c1NC(=O)c1cc(Br)nn1-c1ncccc1Cl [Compound 18, N′-(3-{[5-bromo-2-(3-chloro-pyridin-2-yl)-2H-pyrazole-3-carbonyl]-amino}-4-methyl-thiophene-2-carbonyl)-hydrazinecarboxylic acid methyl ester]		≥ 90%			
COC(=O)NNC(=O)c1cc(Cl)nc(C)c1NC(=O)c1cc(Br)nn1-c1ncccc1Cl [Compound 3, N′-(3-{[5-bromo-2-(3-chloro-pyridin-2-yl)-2H-pyrazole-3-carbonyl]-amino}-6-chloro-2-methyl-pyridine-4-carbonyl)-hydrazinecarboxylic acid methyl ester]	≥ 90%	≥ 90%	≥ 90%	≥ 80%	
Cc1cc(Cl)nc(C(=O)NN(C)C)c1NC(=O)c1cc(Br)nn1-c1ncccc1Cl [reference compound]					less than 80%
COC(=O)NNC(=O)c1cc(Cl)nc(Cl)c1NC(=O)c1cc(C(F)(F)F)nn1-c1ncccc1Cl [Compound 2, N′-(2,6-dichloro-3-{[2-(3-chloro-pyridin-2-yl)-5-trifluoromethyl-2H-pyrazole-3-carbonyl]-amino}-pyridine-4-carbonyl)-hydrazinecarboxylic acid methyl ester]	≥ 90%	≥ 90%	≥ 90%		
CCN(NC(=O)OC)C(=O)c1nc(Cl)cc(C)c1NC(=O)c1cc(Br)nn1-c1ncccc1Cl [Compound 11, N′-(3-{[5-bromo-2-(3-chloro-pyridin-2-yl)-2H-pyrazole-3-carbonyl]-amino}-6-chloro-4-methyl-pyridine-2-carbonyl)-N′-ethyl-hydrazine carboxylic acid methyl ester]	≥ 90%	≥ 90%		≥ 80%	
COC(=O)NNC(=O)c1cc(Cl)nc(Br)c1NC(=O)c1cc(Br)nn1-c1ncccc1Cl [Compound 4, N′-(2-bromo-3-{[5-bromo-2-(3-chloro-pyridin-2-yl)-2H-pyrazole-3-carbonyl]-amino}-6-chloro-pyridine-4-carbonyl)-hydrazinecarboxylic acid methyl ester]	≥ 90%	≥ 90%	≥ 90%	≥ 80%	
COC(=O)NNC(=O)c1cccnc1NC(=O)c1cc(C(F)(F)F)nn1-c1ncccc1Cl [Compound 17, N′-(2-{[2-(3-chloro-pyridin-2-yl)-5-trifluoromethyl-2H-pyrazole-3-carbonyl]-amino}-pyridine-3-carbonyl)-hydrazinecarboxylic acid methyl ester]	≥ 90%			≥ 80%	
COC(=O)N(C)N(C)C(=O)c1nc(Cl)cc(C)c1NC(=O)c1cc(Br)nn1-c1ncccc1Cl [Compound 9, N′-(3-{[5-bromo-2-(3-chloro-pyridin-2-yl)-2H-pyrazole-3-carbonyl]-amino}-6-chloro-4-methyl-pyridine-2-carbonyl)-N,N′-dimethyl-hydrazinecarboxylic acid methyl ester]	≥ 90%	≥ 90%		≥ 80%	
CCN(NC(=O)OC)C(=O)c1nc(Br)cc(Br)c1NC(=O)c1cc(Br)nn1-c1ncccc1Cl [Compound 16, N′-(4,6-dibromo-3-{[5-bromo-2-(3-chloro-pyridin-2-yl)-2H-pyrazole-3-carbonyl]-amino}-pyridine-2-carbonyl)-N′-ethyl-hydrazinecarboxylic acid methyl ester]	≥ 90%	≥ 90%		≥ 80%	
COC(=O)NNC(=O)c1cc(Cl)nc(Cl)c1NC(=O)c1cc(Br)nn1-c1ncccc1Cl [Compound 1, N′-(3-{[5-bromo-2-(3-chloro-pyridin-2-yl)-2H-pyrazole-3-carbonyl]-amino}-2,6-dichloro-pyridine-4-carbonyl)-hydrazinecarboxylic acid methyl ester]	≥ 90%	≥ 90%	≥ 90%	≥ 80%	
